Source: patent US11440922B2, “Heterocyclylmethylidene derivatives and their use as modulators of mGluR5 receptors” (Recordati Industria Chimica e Farmaceutica S.p.A., priority 2017, dated 2022)
pEC50, pIC50, pKi: −log10 of the molar value.

Legend:
[1] = biological target: T1, human mGlu5 receptor (Homo sapiens (Human), UniProt P41594); test: Calcium fluorescence measurements, antagonist potency (negative allosteric modulator activity); assay type: cell-based; details: EC80 of quisqualate as agonist, compounds applied 10 minutes before agonist
From the text: (§1) Cell lines stably transfected were generated using inducible expression vectors encoding human mGlu5 receptor using the Tetracycline-Regulated Expression system (T-REx™ system, Invitrogen, Life Technologies). Human mGluR5 open reading frame (ORF), comprehensive of the stop codon, were cloned into the pcDNA4/TO/myc-His™ A vector, carrying the TetO2. The insertion site was HindIII-PstI for mGluR5 receptors. The obtained constructs were then transfected into the T-REx CHO™ cell line using the FuGENE protocol (Roche); the CHO T-REx™ cell line stably expresses the Tet repressor (from the pcDNA6/TR plasmid) under the selection of blasticidin, 10 μg/ml. Stable clones were obtained selecting with zeocin 1 mg/ml and maintaining in ULTRA CHO medium (LONZA) supplemented with dialyzed FBS, zeocin, blasticidine, at 37° C., in an atmosphere of 5% CO2. The expression of h-mGluR5 receptors was de-repressed with 1 μg/ml tetracycline for 18 h before binding experimentation, while the expression of h-mGluR5 receptors was derepressed respectively with 3 ng/ml and 10 ng/ml tetracycline for 18 h before calcium fluorescence experimentation.
(§2) Cells were seeded into black-walled, clear-bottom, 96-well plates at a density of 80000 cell/well, in RPMI (without Phenol Red, without L-glutamine; Gibco LifeTechnologies, CA) supplemented with 10% dialyzed FBS. Following 18-h incubation with tetracycline, the cells were loaded with […] Ca^2+-sensitive fluorescent dye Fluo-4/AM (Molecular Probes) in Hanks' balanced saline solution (HBSS, Gibco LifeTechnologies, CA) with […] Hepes (Sigma) and 2.5 mM probenecid (Sigma), for 1 h at 37° C. The cells were washed three times with HBSS to remove extracellular dye. Fluorescence signals were measured by using the fluorescence microplate reader Flexstation III (Molecular Devices) at sampling intervals of 1.5 s for 60 s.
(§3) The antagonist potency was determined using the EC80 of the quisqualate used as agonist and the potentiation of mGlu5 activation was determined using the EC20 of the agonist (quisqualate or glutamate). The compounds were applied 10 minutes before the application of the agonist.
(§4) The negative allosteric modulator activity (expressed as IC50) and the positive allosteric modulator activity (expressed as EC50) of the compounds of the invention for the mGlu5 receptors is between 0.1 and 1000 nM.
(§5) The inhibition curves of the tested compounds at cloned mGluR5 subtypes were determined by nonlinear regression analysis using software Prism 4.0 (Graphpad, San Diego, Calif.). The IC50 values and pseudo-Hill slope coefficients were estimated by the program. The values for the inhibition constant, Ki, were calculated according to the equation Ki=IC50/(1+[L]/Kd), where [L] is the concentration of radioligand and Kd is the equilibrium dissociation constant of the radioligand-receptor complex (Cheng et al., Biochem. Pharmacol. (1973), Vol. 22, pp. 3099-3108).

[2] = biological target: human mGluR5 receptor (Homo sapiens (Human), UniProt P41594); test: Radioligand binding assay at cloned human mGluR5 receptor subtype ([3H]MPEP); details: 4 nM [3H]MPEP, CHO T-REx h-mGluR5 cells, 60 min at 25° C.; read-out: mGlu5 Ki
From the text: as §1
Radioligand Binding Assay at Cloned Human mGluR5 Receptor Subtype
Affinity at transmembrane glutamate metabotropic cloned human mGluR5 receptor was evaluated according to the methods of Anderson (Anderson et al., J Pharmacol. Exp. Ther., (2002), Vol. 303(3), pp. 1044-51), with some modifications. Human cloned mGluR5 was obtained by re-suspending CHO T-REx h-mGluR5 cells (50 μg/well) in 20 mM HEPES, 2 mM MgCl2, 2 mM CaCl2, pH 7.4, that then were incubated in a final volume of 1 ml for 60 min at 25° C. with 4 nM [^3H]MPEP in the absence or presence of competing drugs. Non-specific binding was determined in the presence of 10 μM MPEP. The incubation was stopped by addition of cold Tris buffer pH 7.4 and rapid filtration through 0.2% polyethyleneimine pretreated Filtermat 1204-401 (Perkin Elmer) filters. The filters were then washed with cold buffer and the radioactivity retained on the filters was counted by liquid scintillation spectrometry (Betaplate 1204 BS-Wallac).
as §5

[3] = test system: conscious rats; test: Effect on cystometry in conscious rats; assay type: in vivo, rat; details: Minimal Effective Dose that induces statistically significant increase of bladder volume capacity
Procedure: Male Sprague-Dawley rats [Crl:CD(SD) IGS BR] of 300-400 g b.w. supplied by Charles River Italia were used. The animals were housed with free access to food and water and maintained on a forced 12-hour-light/12-hour-dark cycle at 22-24° C. of temperature, except during the experiment. To quantify urodynamic parameters in conscious rats, cystometrographic studies were performed according to the procedure previously reported (Guarneri et al., Pharmacol. Res. Vol. 24, No. 2, pp. 175-187, 1991).
Briefly, the rats were anaesthetized by intraperitoneal administration of 3 ml/kg of Equithensin solution (pentobarbital 30 mg/kg and chloral hydrate 125 mg/kg) and placed in a supine position. An approximately 10 mm long midline incision was made in the shaved and cleaned abdominal wall. The urinary bladder was gently freed from adhering tissues, emptied and then cannulated via an incision in the bladder body, using a polyethylene cannula (0.58 mm internal diameter, 0.96 mm external diameter) which was permanently sutured with silk thread. […]
On the day of the experiment, the rats were placed in modified Bollman cages, i.e., restraining cages that were large enough to permit the rats to adopt a normal crouched posture, but narrow enough to prevent turning around. […] The intraluminal-pressure signal during infusion of saline into the bladder (cystometrogram) was continuously recorded on a polygraph (Rectigraph-8K San-ei with BM614/2 amplifier from Biomedica Mangoni) or stored on PC by data acquisition system (PowerLab, Chart 4 software, AD Instruments). From the cystometrogram, bladder volume capacity (BVC) was evaluated. […] Basal BVC value was evaluated as the mean of the values observed in the cystometrograms recorded in an initial period of 30-60 minutes. […] The bladder infusion restarted and changes in BVC were evaluated from the mean values obtained in the cystometrograms observed during 1, 2, and 3 hours after treatment. […]
Each experimental group was composed of 4-11 animals. All data were expressed as mean±standard error. […]

[4] = biological target: T1, human mGlu5 receptor; test: Fold shift of agonist curve determination; assay type: cell-based; details: ratio of EC50 agonist (quisqualate or glutamate) curves in presence and in absence of test compound; compound at 1 μM
From the text: as §1, §2
The PAM potency was evaluated by performing an agonist concentration response curve in the presence of the compounds. The compounds at fixed concentration (0.01 or 0.1 or 1 μM) were applied 10 minutes before the incubation of the agonist (quisqualate or glutamate) dose-response curve. The fold shift was determined as ratio of EC50 agonist curves in presence and in absence of test compound. For instance, and in particular compound 34 has a fold shift of 2.7.

[5] = biological target: T1, human mGlu5 receptor; test: Calcium fluorescence measurements, potentiation of mGlu5 activation (positive allosteric modulator activity); assay type: cell-based; details: EC20 of the agonist (quisqualate or glutamate), compounds applied 10 minutes before agonist
From the text: as §1, §2, §3, §4

[6] = test system: C57/BL/6J mice; test: Novel object recognition test in mice; assay type: in vivo, mouse; details: intraperitoneal route, 30 min before training, memory assessed 24 h after training
Procedure: Novel object memory was assessed during three sessions. This task relies on the innate tendency of a mouse to explore unfamiliar objects vs. familiar objects. Testing was performed in an open-field arena. 24 h prior to training, C57/BL/6J 5-week male mice were habituated to the arena for 10 min (session 1).
During training, mice were administered by intraperitoneal route with the vehicle or the tested compound and after 30 min they were allowed for 5 min to explore two identical objects (A+A, session 2). Long-term object memory was assessed 24 h after the completion of training during which mice were given 5 min to explore the familiar (A) or the novel (B) object (A+B, session 3). The duration of exploration (defined as the mouse's snout or forelimbs physically touching or approaching within 1 cm of an object) of familiar and novel object was measured. The amount of time spent exploring the novel object over the total time exploring both novel and familiar object in each session was used to measure object memory.
For instance, and in particular the activity of compound of Example 34, expressed as MED (Minimal Effective Dose that induces statistically significant difference of exploration of the two objects) is of 10 mg/kg. Statistical analysis of exploration time values, was performed by using a paired Student's test, which was calculated using GraphPad Prisma 4.

T1 sequence (P41594 21-1212): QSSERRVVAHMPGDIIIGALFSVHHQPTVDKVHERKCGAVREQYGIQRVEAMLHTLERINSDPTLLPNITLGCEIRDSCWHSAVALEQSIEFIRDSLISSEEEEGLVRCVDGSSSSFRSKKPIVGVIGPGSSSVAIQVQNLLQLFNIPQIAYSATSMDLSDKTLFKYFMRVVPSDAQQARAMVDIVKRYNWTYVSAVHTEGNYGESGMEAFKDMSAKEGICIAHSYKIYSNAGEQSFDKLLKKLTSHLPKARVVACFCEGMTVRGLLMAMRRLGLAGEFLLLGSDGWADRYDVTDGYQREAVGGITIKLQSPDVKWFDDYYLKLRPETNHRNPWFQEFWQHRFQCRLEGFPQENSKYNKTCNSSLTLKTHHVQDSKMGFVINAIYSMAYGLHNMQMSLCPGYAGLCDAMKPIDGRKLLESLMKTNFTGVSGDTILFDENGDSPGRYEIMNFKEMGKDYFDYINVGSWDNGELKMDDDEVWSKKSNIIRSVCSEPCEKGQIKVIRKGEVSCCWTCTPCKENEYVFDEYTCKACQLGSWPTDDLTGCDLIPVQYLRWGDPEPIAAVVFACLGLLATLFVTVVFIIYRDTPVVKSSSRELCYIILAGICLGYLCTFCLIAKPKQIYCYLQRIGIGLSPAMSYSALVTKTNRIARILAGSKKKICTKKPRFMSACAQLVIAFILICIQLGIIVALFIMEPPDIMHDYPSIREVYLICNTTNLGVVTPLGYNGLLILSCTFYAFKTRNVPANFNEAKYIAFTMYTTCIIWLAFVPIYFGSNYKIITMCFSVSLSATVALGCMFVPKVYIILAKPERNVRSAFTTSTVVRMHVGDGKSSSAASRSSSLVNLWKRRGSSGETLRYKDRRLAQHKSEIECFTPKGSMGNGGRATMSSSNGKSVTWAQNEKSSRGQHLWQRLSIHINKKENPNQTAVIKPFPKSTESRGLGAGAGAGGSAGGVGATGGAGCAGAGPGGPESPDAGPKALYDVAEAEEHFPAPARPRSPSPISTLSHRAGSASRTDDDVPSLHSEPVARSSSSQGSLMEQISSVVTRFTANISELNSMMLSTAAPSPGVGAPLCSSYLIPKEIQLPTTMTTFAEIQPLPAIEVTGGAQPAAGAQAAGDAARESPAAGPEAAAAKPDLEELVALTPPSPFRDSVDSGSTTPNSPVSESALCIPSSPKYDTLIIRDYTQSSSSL
Chain of human mGluR5 receptor (P41594 21-1212): as above

Row | pIC50 [1] | pKi [2] | mGlu5 Fold Shift @1 μM [4] | pEC50 [5] | SMILES | “In vivo” cystometry MED (mg/kg os) [3] [mg/kg] | MED (Minimal Effective Dose that induces statistically significant difference of exploration of the two objects) [6] [mg/kg]
1 | 7.87 | 8.53 | – | – | CCOC(=O)N1CC/C(=C\C#Cc2cc(C#N)ccn2)C(C)(C)C1 [Example 31, ethyl (4E)-4-[3-(4-cyanopyridin-2-yl)prop-2-yn-1-ylidene]-3,3-dimethylpiperidine-1-carboxylate] | 1 | –
2 | 7.74 | 8.89 | – | – | COC(=O)N1CC/C(=C\C#Cc2cccc(Cl)c2)C(C)(C)C1 [Example 40, methyl (4E)-4-[3-(3-chlorophenyl)prop-2-yn-1-ylidene]-3,3-dimethylpiperidine-1-carboxylate] | 3 | –
3 | 8.69 | 8.61 | – | – | CCOC(=O)N1CC/C(=C\C#Cc2cccc(C)n2)C1(C)C [Example 48, ethyl (3E)-2,2-dimethyl-3-[3-(6-methylpyridin-2-yl)prop-2-yn-1-ylidene]pyrrolidine-1-carboxylate] | 1 | –
4 | – | 9.00 | 2.7 | 6.97 | CC1(C)CN(C(=O)c2cccc(Cl)c2)CC/C1=C\C#Cc1cccc(Cl)c1 [Example 34, (3-chlorophenyl){(4E)-4-[3-(3-chlorophenyl)prop-2-yn-1-ylidene]-3,3-dimethylpiperidin-1-yl}methanone] | – | 10
